Read-outs that look alike come from different tables or passages of the source.
Tests used:
[1] = molecular target: T1, IGF-1R (human cytoplasmic domain fused with GST) (Homo sapiens, UniProt P08069); assay: Kinase IGF-1R test (Test A): inhibition of autophosphorylation of the enzyme, HTRF; assay type: biochemical; conditions: 120 μM ATP
T1 construct: The human cytoplasmic domain of IGF-1R was cloned by fusion with glutathione S-transferase (GST); made in house; host or cells: SF21 insect cells (baculovirus, pFastBac-GST)
T1 sequence (P08069 960-1367 limits assumed): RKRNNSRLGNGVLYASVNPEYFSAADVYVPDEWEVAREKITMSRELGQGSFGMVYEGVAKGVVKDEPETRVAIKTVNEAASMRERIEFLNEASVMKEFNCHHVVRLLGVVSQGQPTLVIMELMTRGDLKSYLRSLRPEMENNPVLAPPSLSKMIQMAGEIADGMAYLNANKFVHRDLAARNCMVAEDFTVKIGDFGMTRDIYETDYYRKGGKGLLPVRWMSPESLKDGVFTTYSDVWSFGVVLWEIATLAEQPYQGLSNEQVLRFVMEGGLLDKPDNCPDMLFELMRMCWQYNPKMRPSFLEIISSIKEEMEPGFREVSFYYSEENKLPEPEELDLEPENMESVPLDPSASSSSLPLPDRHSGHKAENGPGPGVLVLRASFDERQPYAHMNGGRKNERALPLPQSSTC
Description: A) Experimental Protocol for the Kinase IGF-1R Test:
The inhibitory activity of the compounds on IGF1R is determined by measuring the inhibition of autophosphorylation of the enzyme using a time-resolved fluorescence test (HTRF). The human cytoplasmic domain of IGF-1R was cloned by fusion with glutathione S-transferase (GST) in the baculovirus expression vector pFastBac-GST. The protein is expressed in the SF21 cells and purified to about 80% homogeneity. For the enzymatic test, the test compound at 10 mM dissolved in DMSO is diluted in 1/3 steps in a 50 mM Hepes, pH 7.5, 5 mM MnCl2, 50 mM NaCl, 3% Glycerol, 0.025% Tween 20 buffer. To measure the inhibition, the successive dilutions of the compound are preincubated for 30 minutes and 90 minutes in the presence of 5 nM of enzyme, the final DMSO concentration not exceeding 1%. The enzymatic reaction is initiated to have a final ATP concentration of 120 μM, and is stopped after 5 minutes by addition of 100 mM Hepes, pH 7.0 buffer containing 0.4 M of potassium fluoride, 133 mM EDTA, 0.1% BSA, the XL665-labelled antibody anti-GST and the anti-phosphotyrosine antibody conjugated to europium cryptate Eu—K (Cis-Bio Int.). The characteristics of the two fluorophores, XL-665 and Eu—K, are available in G. Mathis et al., Anticancer Research, 1997, 17, pages 3011-3014. The energy transfer between the excited europium cryptate to the acceptor XL665 is proportional to the degree of autophosphorylation of IGF-1R. The specific long-lasting signal of XL-665 is measured in a GENios Pro TECAN plate counter. The inhibition of autophosphorylation of IGF-1R at time 30 minutes and 90 minutes with the test compounds of the invention is calculated relative to a 1% in DMSO control, whose activity is measured in the absence of compound. The curve representing the percentage of inhibition as a function of the log of the concentration is established to determine the concentration corresponding to 50% inhibition (IC50).

[2] = molecular target: MEF-IGF1R cells (stable clone transfected with hIGF-1R) (Homo sapiens, UniProt P08069); assay: Proliferation/viability of MEF-IGF1R (Test C), [14C]thymidine incorporation; assay type: cell-based; conditions: rhIGF1 100 ng/mL, 72 hours, read-out: Test C IC50
Chain of MEF-IGF1R cells (stable clone transfected with hIGF-1R) (P08069 whole entry, change not shown): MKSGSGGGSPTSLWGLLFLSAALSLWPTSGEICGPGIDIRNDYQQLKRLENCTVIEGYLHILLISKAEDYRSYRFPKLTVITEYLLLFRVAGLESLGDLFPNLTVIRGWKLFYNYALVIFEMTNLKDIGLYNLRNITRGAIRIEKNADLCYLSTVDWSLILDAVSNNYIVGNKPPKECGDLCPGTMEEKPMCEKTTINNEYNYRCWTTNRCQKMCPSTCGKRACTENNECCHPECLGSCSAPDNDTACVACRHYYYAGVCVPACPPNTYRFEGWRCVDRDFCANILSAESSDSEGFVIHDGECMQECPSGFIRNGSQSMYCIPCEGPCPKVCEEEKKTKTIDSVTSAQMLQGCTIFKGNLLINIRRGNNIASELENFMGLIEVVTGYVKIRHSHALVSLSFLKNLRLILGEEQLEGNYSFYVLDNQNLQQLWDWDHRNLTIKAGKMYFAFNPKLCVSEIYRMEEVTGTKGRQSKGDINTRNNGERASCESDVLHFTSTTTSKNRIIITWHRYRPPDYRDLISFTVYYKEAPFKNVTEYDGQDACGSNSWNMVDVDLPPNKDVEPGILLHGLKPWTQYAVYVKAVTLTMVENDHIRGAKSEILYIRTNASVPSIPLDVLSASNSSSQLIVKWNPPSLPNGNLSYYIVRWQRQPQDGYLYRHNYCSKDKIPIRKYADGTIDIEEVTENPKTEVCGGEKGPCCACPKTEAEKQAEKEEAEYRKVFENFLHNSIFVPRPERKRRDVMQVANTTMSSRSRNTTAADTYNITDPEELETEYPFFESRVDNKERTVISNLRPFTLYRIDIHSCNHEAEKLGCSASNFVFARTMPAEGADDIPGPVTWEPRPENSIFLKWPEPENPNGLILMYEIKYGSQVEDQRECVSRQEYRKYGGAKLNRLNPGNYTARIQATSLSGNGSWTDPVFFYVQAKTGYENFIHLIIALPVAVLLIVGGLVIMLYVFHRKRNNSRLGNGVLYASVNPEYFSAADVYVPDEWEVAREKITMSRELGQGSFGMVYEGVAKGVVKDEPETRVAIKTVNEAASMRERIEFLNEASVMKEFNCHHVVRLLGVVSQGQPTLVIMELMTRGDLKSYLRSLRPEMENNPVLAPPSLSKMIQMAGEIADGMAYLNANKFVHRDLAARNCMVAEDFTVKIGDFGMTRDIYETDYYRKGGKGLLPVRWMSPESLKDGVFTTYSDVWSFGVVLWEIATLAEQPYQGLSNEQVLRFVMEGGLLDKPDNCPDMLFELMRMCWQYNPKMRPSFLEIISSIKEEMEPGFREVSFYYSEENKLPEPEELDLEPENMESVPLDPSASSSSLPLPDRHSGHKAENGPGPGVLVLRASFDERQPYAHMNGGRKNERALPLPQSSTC
Description: C) Measurement of the Proliferation/Viability of MEF-IGF1R
Cell culture: the MEF-IGF1R cells (stable clone of cells transfected with the receptor hIGF-1R) are cultured at 37° C. under 5% CO2 in EMEM medium containing 10% FCS.
Test procedure: the cells are seeded at 5000 cells per well in 96-well Cytostar plates (Amersham) with 0.2 mL of EMEM culture medium at 37° C. for 18 hours. The cells are then washed twice with EMEM medium and left to culture without serum for 24 hours. The compounds are then added at various concentrations in the presence of rhIGF1 (100 ng/mL) and 0.1 μCi of Thymidine [^14C] (specific activity ˜50 mCi/mmol) to give 0.2 mL of volume per well. After incubation for 72 hours in the presence of the compound, at 37° C. under 5% CO2, the incorporation of Thymidine [^14C] is measured by counting the radioactivity on a Microbeta trilux counter (Perkin-Elmer). The IC50 is determined from 10 increasing concentrations of the compound.
(i) The tests are performed in duplicate and the mean of the two tests is calculated.
(ii) The value of the signal of the maximum response is calculated from the positive control: cells stimulated with IGF1 without compound.
(iii) Value of the signal of the minimum response is calculated from the negative control: cells not stimulated with IGF1 without compound.
(iv) By using these values as maximum (100%) and minimum (0%), respectively, the data were normalized so as to give a percentage of the maximum response.
(v) A curve of dose response is plotted and the IC50 (the concentration of which the compound induces a 50% decrease in the signal) of the compound is calculated by non-linear regression analysis.

[3] = preincubation with enzyme 30 minutes, read-out: Test A 30′ IC50
[4] = preincubation with enzyme 90 minutes, read-out: Test A 90′ IC50

IC50 [1, 3] [nM]	IC50 [1, 4] [nM]	SMILES	GI50 [2] [nM]
10 to 100	10 to 100	CC(C)(C)c1ccc(N2C(=O)N(Cc3ccnc(NC(=O)NC4CCCC4)c3)C(C)(C)C2=O)cc1 [Example 10, 1-(4-{[3-(4-tert-butylphenyl)-5,5-dimethyl-2,4-dioxoimidazolidin-1-yl]methyl}pyridin-2-yl)-3-cyclopentylurea]	> 100
> 100	10 to 100	CN(C)C(=O)Nc1cc(CN2C(=O)N(c3ccc4c(c3)N(C(=O)CNC3CCCC3)CC4(C)C)C(=O)C2(C)C)ccn1 [Example 3, 3-[4-({3-[1-(N-cyclopentylglycyl)-3,3-dimethyl-2,3-dihydro-1H-indol-6-yl]-5,5-dimethyl-2,4-dioxoimidazolidin-1-yl}methyl)pyridin-2-yl]-1,1-dimethylurea]	10 to 100
10 to 100	10 to 100	CCCCN(C)C(=O)Nc1cc(CN2C(=O)N(c3ccc(C(C)(C)C)cc3)C(=O)C2(C)C)ccn1 [Example 27, 1-butyl-3-(4-{[3-(4-tert-butylphenyl)-5,5-dimethyl-2,4-dioxoimidazolidin-1-yl]methyl}pyridin-2-yl)-1-methylurea]	> 100
10 to 100	10 to 100	CC(C)(C)c1ccc(N2C(=O)N(Cc3ccnc(Nc4cncc(F)c4)c3)C(C)(C)C2=O)cc1 [Example 31A, 3-(4-tert-butylphenyl)-1-({2-[(5-fluoropyridin-3-yl)amino]pyridin-4-yl}methyl)-5,5-dimethylimidazolidine-2,4-dione]	> 100
10 to 100	< 10	CC(C)(C)c1ccc(N2C(=O)N(Cc3ccnc(NC(=O)N4CCOCC4)c3)C(C)(C)C2=O)cc1 [Example 20, N-(4-{[3-(4-tert-butylphenyl)-5,5-dimethyl-2,4-dioxoimidazolidin-1-yl]methyl}pyridin-2-yl)morpholine-4-carboxamide]	> 100
10 to 100	10 to 100	CC(C)(C)c1ccc(N2C(=O)N(Cc3ccnc(Nc4cncnc4)c3)C(C)(C)C2=O)cc1 [Example 7, 3-(4-tert-butylphenyl)-5,5-dimethyl-1-{[2-(pyrimidin-5-ylamino)pyridin-4-yl]methyl}imidazolidine-2,4-dione]	> 100
10 to 100	< 10	CC(C)(C)c1ccc(N2C(=O)N(Cc3ccnc(NC(=O)NCCCCN4CCCC4)c3)C(C)(C)C2=O)cc1 [Example 12, 1-(4-{[3-(4-tert-butylphenyl)-5,5-dimethyl-2,4-dioxoimidazolidin-1-yl]methyl}pyridin-2-yl)-3-(4-pyrrolidin-1-ylbutyl)urea]	> 100
> 100	10 to 100	CC(C)(C)c1ccc(N2C(=O)N(Cc3ccnc(NC(=O)NC4CCCCC4)c3)C(C)(C)C2=O)cc1 [Example 16, 1-(4-{[3-(4-tert-butylphenyl)-5,5-dimethyl-2,4-dioxoimidazolidin-1-yl]methyl}pyridin-2-yl)-3-cyclohexylurea]	> 100
10 to 100	10 to 100	CC1(C)C(=O)N(c2ccc(OC(F)(F)F)c(NC(=O)[C@H](N)c3ccccc3)c2)C(=O)N1Cc1ccnc(Nc2cccnc2)c1 [Example 5a, (2R)-2-amino-N-[5-(4,4-dimethyl-2,5-dioxo-3-{[2-(pyridin-3-ylamino)pyridin-4-yl]methyl}imidazolidin-1-yl)-2-(trifluoromethoxy)phenyl]-2-phenylacetamide]	< 10
10 to 100	10 to 100	CC(C)(C)c1ccc(N2C(=O)N(Cc3ccnc(N)n3)C(C)(C)C2=O)cc1 [Example 1 Stage f), 1-[(2-aminopyrimidin-4-yl)methyl]-3-(4-tert-butylphenyl)-5,5-dimethylimidazolidine-2,4-dione]	> 100
> 100	> 100	CN(C)C(=O)Nc1nccc(CN2C(=O)N(c3ccc(C(C)(C)C)cc3)C(=O)C2(C)C)n1 [Example 2, 3-(4-{[3-(4-tert-butylphenyl)-5,5-dimethyl-2,4-dioxoimidazolidin-1-yl]methyl}pyrimidin-2-yl)-1,1-dimethylurea]	> 100

From US7935819B2, “Cyclic urea derivatives, preparation thereof and pharmaceutical use thereof as kinase inhibitors” (Aventis Pharma S.A., priority 2006, dated 2011)
